{
  "source": "patent US8426458B2",
  "about": "“Hepatitis C Virus inhibitors” (priority 2009, dated 2013)",
  "tested_on": "HCV 1b genotype replicon",
  "experiment": "HCV replicon assay (qRT-PCR or luciferase), genotype 1b",
  "format": "cell-based",
  "settings": "Hepatitis C virus, read-out: Genotype-1b replicon EC50 Range",
  "from_the_text": "HCV replicon cell lines (kindly provided by R. Bartenschlager) isolated from colonies as described by Lohman et. al. (Lohman et al. (1999) Science 285: 110-113, expressly incorporated by reference in its entirety) and used for all experiments. The HCV replicon has the nucleic acid sequence set forth in EMBL Accession No.: AJ242651, the coding sequence of which is from nucleotides 1801 to 8406.\nThe coding sequence of the published HCV replicon was synthesized and subsequently assembled in a modified plasmid pBR322 (Promega, Madison, Wis.) using standard molecular biology techniques. […]\nEC50 values of single agent compounds and combinations were determined by HCV RNA detection using quantitative RT-PCR, according to the manufacturer's instructions, with a TaqMan® One-Step RT-PCR Master Mix Reagents Kit (Cat# AB 4309169, Applied Biosystems) on an ABI Model 7500 thermocycler. The TaqMan primers used for detecting and quantifying HCV RNA were obtained from Integrated DNA Technologies. HCV RNA was normalized to GAPDH RNA levels in drug-treated cells, which is detected and quantified using the Human GAPDH Endogenous Control Mix (Applied Biosystems, AB 4310884E). […] Chemical agent cytotoxicity is evaluated using an MTS assay according to the manufacturer's directions (Promega). […]",
  "data": [
    {"smiles": "CN(C)[C@H](C(=O)N1CCC[C@H]1c1nc(C(=O)N[C@H]2CC[C@H](NC(=O)c3c[nH]c([C@@H]4CCCN4C(=O)[C@@H](c4ccccc4)N(C)C)n3)CC2)c[nH]1)c1ccccc1", "note": "[Example 2]", "values": [
      {"measurement": "EC50", "result": "> 10", "unit": "nM"}
    ]}
  ]
}
